Measured values reported in ChEMBL document CHEMBL3045359, “Synthesis, stereochemistry, and antimicrobial evaluation of t(3)-isopropyl-r(2), c(6)-di-2-furanylpiperidin- 4-one and its derivatives” (2006).
Values after ≈ are worked out from the molar mass of the structure shown.

Legend:
Format in all cases: functional
Enterococcus faecalis = test: Antibacterial activity against Enterococcus faecalis after 24 hr by two-fold serial dilution method
Pseudomonas aeruginosa = test: Antibacterial activity against Pseudomonas aeruginosa after 24 hr by twofold serial dilution method
Aspergillus flavus = test: Antifungal activity against Aspergillus flavus after 72 to 96 hr by two-fold serial dilution method
Candida [1] = test: Antifungal activity against Candida-6 after 72 to 96 hr by two-fold serial dilution method
Aspergillus niger = test: Antifungal activity against Aspergillus niger after 72 to 96 hr by two-fold serial dilution method
Candida [2] = test: Antifungal activity against Candida-51 after 72 to 96 hr by two-fold serial dilution method
Bacillus subtilis = test: Antibacterial activity against Bacillus subtilis after 24 hr by two-fold serial dilution method
Staphylococcus aureus = test: Antibacterial activity against Staphylococcus aureus after 24 hr by two-fold serial dilution method

Structure (SMILES) | MIC (Enterococcus faecalis) | MIC (Pseudomonas aeruginosa) | MIC (Aspergillus flavus) | MIC (Candida [1]) | MIC (Aspergillus niger) | MIC (Candida [2]) | MIC (Bacillus subtilis) | MIC (Staphylococcus aureus)
CC(C)C1/C(=N/O)CC(c2ccco2)NC1c1ccco1 (stereo unspecified) | 50 µg/mL (≈ 173 µM) | 100 µg/mL (≈ 347 µM) | 25 µg/mL (≈ 86.7 µM) | 50 µg/mL (≈ 173 µM) | 100 µg/mL (≈ 347 µM) | 50 µg/mL (≈ 173 µM) | 50 µg/mL (≈ 173 µM) | 50 µg/mL (≈ 173 µM)
CC(C)C1C(=O)CC(c2ccco2)N(C=O)C1c1ccco1 (stereo unspecified) | 25 µg/mL (≈ 83 µM) | 50 µg/mL (≈ 166 µM) | 50 µg/mL (≈ 166 µM) | 25 µg/mL (≈ 83 µM) | 50 µg/mL (≈ 166 µM) | 50 µg/mL (≈ 166 µM) | 25 µg/mL (≈ 83 µM) | 50 µg/mL (≈ 166 µM)
CC(C)C1C(=O)CC(c2ccco2)N(C(=O)c2ccccc2)C1c1ccco1 (stereo unspecified) | 50 µg/mL (≈ 132 µM) | 50 µg/mL (≈ 132 µM) | 25 µg/mL (≈ 66.2 µM) | 12.5 µg/mL (≈ 33.1 µM) | 25 µg/mL (≈ 66.2 µM) | 12.5 µg/mL (≈ 33.1 µM) | 12.5 µg/mL (≈ 33.1 µM) | 25 µg/mL (≈ 66.2 µM)
C[C@@H]1[C@H](O)[C@@H](C)/C=C/C=C/C=C/C=C/C=C/C=C/C=C/[C@H](O[C@@H]2O[C@H](C)[C@@H](O)[C@H](N)[C@@H]2O)C[C@@H]2O[C@](O)(C[C@@H](O)C[C@@H](O)[C@H](O)CC[C@@H](O)C[C@@H](O)CC(=O)O[C@H]1C)C[C@H](O)[C@H]2C(=O)O [AMPHOTERICIN B] |  |  | 50 µg/mL (≈ 54.1 µM) | 25 µg/mL (≈ 27.1 µM) | 50 µg/mL (≈ 54.1 µM) | 25 µg/mL (≈ 27.1 µM) |  | 
CN[C@@H]1[C@H](O[C@H]2[C@H](O[C@H]3[C@H](O)[C@@H](O)[C@H](N=C(N)N)[C@@H](O)[C@@H]3N=C(N)N)O[C@@H](C)[C@]2(O)C=O)O[C@@H](CO)[C@H](O)[C@H]1O [STREPTOMYCIN] | 50 µg/mL (≈ 86 µM) | 25 µg/mL (≈ 43 µM) |  |  |  |  | 12.5 µg/mL (≈ 21.5 µM) | 25 µg/mL (≈ 43 µM)

Now from value to compound:

MIC (Enterococcus faecalis) | MIC (Pseudomonas aeruginosa) | MIC (Aspergillus flavus) | MIC (Candida [1]) | MIC (Aspergillus niger) | MIC (Candida [2]) | MIC (Bacillus subtilis) | MIC (Staphylococcus aureus) | Structure (SMILES)
> 100 µg/mL | 50 µg/mL (≈ 183 µM) | > 100 µg/mL | 50 µg/mL (≈ 183 µM) | > 100 µg/mL | 25 µg/mL (≈ 91.5 µM) | 100 µg/mL (≈ 366 µM) | > 100 µg/mL | CC(C)C1C(=O)CC(c2ccco2)NC1c1ccco1 (stereo unspecified)
50 µg/mL (≈ 159 µM) | 25 µg/mL (≈ 79.3 µM) | 50 µg/mL (≈ 159 µM) | 50 µg/mL (≈ 159 µM) | 50 µg/mL (≈ 159 µM) | 25 µg/mL (≈ 79.3 µM) | 12.5 µg/mL (≈ 39.6 µM) | 12.5 µg/mL (≈ 39.6 µM) | CC(=O)N1C(c2ccco2)CC(=O)C(C(C)C)C1c1ccco1 (stereo unspecified)
50 µg/mL (≈ 152 µM) | 25 µg/mL (≈ 75.9 µM) | 25 µg/mL (≈ 75.9 µM) | 12.5 µg/mL (≈ 37.9 µM) | 50 µg/mL (≈ 152 µM) | 50 µg/mL (≈ 152 µM) | 12.5 µg/mL (≈ 37.9 µM) | 25 µg/mL (≈ 75.9 µM) | CCC(=O)N1C(c2ccco2)CC(=O)C(C(C)C)C1c1ccco1 (stereo unspecified)
